Assay results from patent publication US20220074923A1, “METHODS OF IDENTIFYING PARKIN-MEDIATED MITOPHAGY ACTIVATING AGENTS” (THE GOVERNING COUNCIL OF THE UNIVERSITY OF TORONTO, priority 2018, published 2022).

Experiments:
TH-GAL4>UAS-mitoQC flies = test: In vivo mitoQC assay in dopaminergic neurons; parameters: species or system Drosophila; settings: SR3677 with sublethal paraquat dose (1 mM), 7 days, vs water
Experimental: Cells were treated with 50 μM chloroquine for 16 hours prior to addition of E64, leupeptin, SR3677 and CCCP in the indicated treatment group. For the in vivo mitoQC assays, 5 7-day old male TH-GAL4>UAS-mitoQC were placed into vials containing water (control), sublethal 1 mM paraquat, 1 mM SR3677 alone and in combination with paraquat for 7 days. Whole flies were then fixed overnight in 1% PFA and 0.1% Tx-100. Fly brains were then dissected and fixed with 4% PFA for 20 minutes. 3 10-minute PBS washes were performed in between each step. Fly brains were mounted in VectaShield™ mounting medium for imaging using the Zeiss LSM700 confocal fluorescence microscope with 40× 1.4 NA Oil Plan-APOCRAMAT objective and the appropriate lasers and filter. 0.8 μm z-stacks were acquired to capture dopaminergic neurons expressing the mitoQC transgene. Laser settings were kept constant within each trial. At least 2 fly brains were imaged for each treatment across 4 independent trials.
The mitoQC assay may also be performed in Drosophila to quantify mitophagy specifically in cell types of interest using the GAL4/UAS system. Briefly, the mitoQC transgene was expressed in dopaminergic neurons using the TH-GAL4 driver^41. Since CCCP cannot be administered without affecting the viability of the flies, 7-day old flies were fed the parkinsonian toxin, paraquat. […]

[1] = test system: differentiated SH-SY5Y cells; test: Cell viability determination (ATP levels normalized to protein); assay type: cell-based; settings: 24 hours
Experimental: SH-SY5Y cells were differentiated according to previously established protocol consisting of sequential treatment with retinoic acid followed by brain-derived neurotrophic factor^10. Cells were then seeded into white 96-well plates with white bottom and allowed to adhere overnight. Varying doses of SR3677 were combined with 500 μM paraquat and administered for 24 hours. Controls treated with 0.5 μM SR3677, equivalent volume DMSO and paraquat alone were also included. Following 24-hour incubation, cell media was aspirated and THE lysis buffer (50 mM Tris-HCl, 100 mM NaCl, 0.1 mM EDTA) containing protease inhibitor cocktail was added to each well. Half of the lysate volume was removed and aliquoted into a separate 96-well plate. ATP levels were measured in the opaque plate using the ATP determination (ThermoFisher A22066) assay kit and protein concentrations were measured using the Pierce BCA (ThermoFisher #23225) assay kit. ATP levels were normalized to protein concentration and then by the ratio for cells treated with paraquat alone in a control well on each plate.

[2] = test system: heteroplasmic mt:Col^T300l flies; test: Survival and climbing of heteroplasmic mt:CoI T300I flies; assay type: in vivo, Drosophila
Experimental: Finally, SR3677 in an alternate, genetic model of mitochondrial dysfunction was tested. Specifically, flies with a temperature-sensitive, de-stabilizing mutation in cytochrome c oxidase subunit I (mt:Col^T300l) were used. This mutation causes depolarization of the mitochondrial membrane potential and increased mitochondrial reactive oxygen species^44, manifesting in systemic consequences such as impaired climbing and survival. Flies with this mutation in 100% of their mitochondrial genomes, or homoplasmic flies, only survive 4 days post-eclosion. In order to extend our therapeutic window, SR3677 in heteroplasmic flies which contain this temperature-sensitive mutation in approximately 90% of their mtDNA instead^47 was tested. These flies retain the same phenotypes as homoplasmic flies, including reduced survival and climbing ability although to a less severe extent (FIG. 7).
Immediately following eclosion, male heteroplasmic mt:Col^T300l flies were transferred to vials containing either water, 1 or 2 mM SR3677. Newly eclosed Canton(S) male flies were placed into fresh vials and referenced as a control for these experiments and flies were raised at non-permissive 29° C. for these experiments. […]

HEK293 GFP Parkin cells = test: High throughput small molecule screen for Parkin recruitment to mitochondria (high content imaging); assay type: cell-based; settings: 4 μM, 16 h, then CCCP 2 h; rank out of 480; low rank = activator of Parkin recruitment, high rank = inhibitor
Experimental: 10 uL of 0.1 mg/mL Poly-D-Lys solution was added to 384-well plates for 5 minutes, followed by a PBS wash. Plates were dried for at least 2 hours. 50 μL of 600 000 HEK293 GFP Parkin cell/mL of DMEM was dispensed into each well. After 24 hours incubation to allow the cells to adhere, 200 nL of small molecules (or DMSO in columns 1, 2, 23 and 24) were pinned. Following a 16-hour incubation, 200 nL of 5 mM CCCP were added to all wells except columns 1 and 2, into which 200 nL of DMSO was added. Following 2-hour incubation, cells were fixed with 4% paraformaldehyde (PFA) and stained with 50 μL of 1 μg/mL DAPI solution for 15 minutes. After the final PBS wash, plates were ready for high content microscopy.
Images were acquired on IN Cell Analyzer 6000 (GE Healthcare), equipped with sCMOS camera (2048×2048), and 20x/0.45 NA Plan Fluor objective (Nikon) in open aperture mode using 1×1 binning. Image analysis was performed using Columbus Image Analysis System (PerkinElmer). Nuclei were initially detected in DAPI channel, followed by whole cell segmentation in GFP channel. Using PhenoLOGIC machine learning plug-in, cells were split into 2 sub-populations: cells with even GFP-Parkin distribution and cells where GFP-Parkin was localized to mitochondria. The percentage of cells with mitochondrial GFP-Parkin was determined per well. The molecules were then rank ordered based on z-score, which is calculated using the formula: […]
where x is the percentage of cells with mitochondrial GFP-Parkin for a specific small molecule, μ is the average percentage of cells with mitochondrial Parkin in positive control columns 23 and 24, where cells are treated with CCCP only.
These cell lines were screened across 2 biological replicates with compounds from the kinase inhibitor (n=480) and Prestwick (n=1120) collections. The 3-day screening protocol consisted of (1) seeding cells, (2) pinning small molecules at 4 μM concentration and (3) inducing mitophagy with CCCP, followed by processing of plates for high content imaging. Following image acquisition, DAPI staining was used to segment cells within each image. Supervised machine learning was used to classify cells into two classes: (1) cells with cytosolic Parkin distribution and (2) those with Parkin localized to mitochondria. […] Compounds which increased the proportion of class 2 cells across 2 biological replicates, compared to the CCCP-only treated cells (FIG. 10), as indicated by their z-score (FIG. 11), were considered hits.

CN(C)CCOc1cc(-c2cn[nH]c2)ccc1NC(=O)[C@@H]1COc2ccccc2O1 [SR3677]
percentage of red-only mitochondrial signal over the total mitochondrial signal (TH-GAL4>UAS-mitoQC flies): greater than flies whose food was supplemented with water
cell viability, compound alone ([1]; 0.5 μM): did not affect cell viability
viability of cells challenged with paraquat ([1]; varying concentrations with 500 μM paraquat): improved the viability of cells challenged with paraquat in a dose-dependent manner
survival ([2]; 1 mM and 2 mM in fly food, 29° C.): equally improved
climbing ability ([2]; 2 mM in fly food, 7 days): improved
rank in the kinase inhibitor library screen (rank order by z-score) (HEK293 GFP Parkin cells): 71/480
